From publication PMC8556439, “Modeling the time course of ComX: towards molecular process control for Bacillus wild-type cultivations” (AMB Express, 2021)

Key:
[1] = assay type: physicochemical; conditions: pH 7
Experimental: (§1) Due to the high complexity of ComX purification, the pheromone was measured with a bioassay based on the principle provided by Magnuson et al. ([1994]). Thereby, reporter strain CT2 (∆comX::kan; PsrfA-lacZ) can be used as an assay reagent and a ComX-dependent expression of lacZ can be determined by measuring the β-galactosidase activity with the Miller assay (Miller [1972]). The employed bioassay is further in line with a recently published method, provided by Dogsa et al. ([2021]). A detailed description of the working principle and further validation experiments are given in the supplementary information. In brief, a main culture of strain CT2 was inoculated with preculture II to a starting OD600 of 0.1 and incubated for 3 h at 120 rpm and 37 °C. […] Bnk values were measured using the respective sterile cultivation medium instead of sampled cell-free supernatant. The limit of detection (LOD) and limit of quantification (LOQ) was calculated from 20 samples using Eqs. […]
(§2) For autodegradation studies, strain DSM 10^ T was additionally cultivated in 3000 mL shake flasks using MSM with 40 g/L glucose. […] The incubation was performed in biological duplicates for 24 h at 120 rpm and 37 °C and samples were taken regularly and analyzed for OD600, ComX and peptidase activity.

[2] = system: B. subtilis BKK31700 (∆comX); assay: ComX intracellular degradation: ComX deficient strain cultivated in spent medium; assay type: in vitro ADME; conditions: ComX bioassay, biological duplicates
Experimental: as §1, §2

[3] = cited from earlier work
Experimental: The LC–MS analysis of extracellular ComX also confirmed degradation after reaching a peak during cultivation process, which was also detected by the bioassay (Additional file 1: Figure S2a). Resembling Henkel et al. ([2013]), experiments were performed with respect to (i) autodegradation, (ii) extracellular degradation and (iii) intracellular degradation (Fig. 1), to obtain deeper understanding of the degradation kinetics of ComX. […] Here, an increase in EACSP was initially observed and, after reaching a maximum, a slight downward trend was seen, which was also accompanied by calculated degradation rates. The highest modeled EACSP = 66.3 ∆A/(h·mL) was reached after 20.5 h, which is concomitant to the highest measured degradation rate after 16 h. […] However, to unveil a potential autodegradation effe ... || To allow for this optimization strategy, profound quantitative knowledge must be gathered as an initial step. This was done in the presented study regarding surfactin production and ComX pheromone progression, providing new insights into this crosstalk. Several bioreactor batch fermentations with different initial glucose concentrations were performed to illustrate different lengths of growth phases of B. subtilis DSM 10^ T. Thereby the general progression of ComX activity was consistent for all bioreactor set-ups, regardless of varying experimental set-ups. During exponential growth, an initi ...

PsrfA = conditions: ref Magnuson et al. [1994], Okada et al. [2005], [2007], Dogsa et al. [2021], cited from earlier work
Experimental: (§3) To allow for this optimization strategy, profound quantitative knowledge must be gathered as an initial step. This was done in the presented study regarding surfactin production and ComX pheromone progression, providing new insights into this crosstalk. Several bioreactor batch fermentations with different initial glucose concentrations were performed to illustrate different lengths of growth phases of B. subtilis DSM 10^ T. Thereby the general progression of ComX activity was consistent for all bioreactor set-ups, regardless of varying experimental set-ups. During exponential growth, an initi ...

extracellular proteases = assay: ComX extracellular degradation in cell-free supernatant of bioreactor cultivation; assay type: in vitro ADME, B. subtilis DSM 10T; conditions: spectinomycin 100 µg/mL, incubated 120 rpm, 37 °C, sampled 0-8 h, ComX bioassay, biological duplicates
Experimental: as §1
Cell-free supernatant was obtained from bioreactor cultivation with 40 g/L glucose by two centrifugation steps for 30 min at 4816 g and 4 °C (Heraeus X3R, Thermo Fisher Scientific GmbH, Braunschweig, Germany). […] Samples were taken after t = 0, 1, 2, 3, 4, 6 and 8 h and analyzed for ComX and peptidase activity and the ComX degradation rate in (MU/h) was calculated from the measured data.

[4] = ref Rangarajan and Clarke [2015]; cited from earlier work
Experimental: as §3

**Q.** With “ADPITRQ WGD [ComX, quorum sensing pheromone of B. subtilis, farnesylated peptide secreted into culture supernatant; not purified, measured in supernatant]” as the substance, how does the “remaining ComX activity after 8 h of incubation (autodegradation study)” value [1] read?
**A.** 251.1 ± 17.1 MU

**Q.** And the “ComX activity remaining after 24 h of cultivation (intracellular degradation study)” value ([2]; BKK31700 cells in spent filtered medium of DSM 23778, 4 g/L glucose added, 24 h, 120 rpm, 37 °C)?
**A.** 103.2 ± 11.4 MU

**Q.** What about the “initial ComX activity at t0 (intracellular degradation study)” value ([2]; washed BKK31700 cells resuspended in spent filtered medium of DSM 23778, 4 g/L glucose added) of the same substance?
**A.** 96.5 ± 3.0 MU

**Q.** And the “heat stability of ComX (time stable)” value ([3]; at 80 °C, ref Magnuson et al. ([1994]))?
**A.** 12 h

**Q.** What about the “sensitivity of ComX to extracellular proteases” value ([3]; especially serine proteases, ref Spacapan et al. ([2018]) and Magnuson et al. ([1994])) of the same substance?
**A.** sensitive to extracellular proteases

**Q.** And the “storage time after which a degradation effect was observed” value ([3]; purified ComX, storage, ref Dogsa et al. ([2021]))?
**A.** 100 days

**Q.** And the “stability of ComX in acidic environments” value ([3]; ref Okada et al. [2007])?
**A.** does not appear to be stable

**Q.** And the “ComX concentration at saturation of response” value (PsrfA)?
**A.** around 10 nM

**Q.** And the EC50 (PsrfA; read-out: ComX concentration at half maximum response)?
**A.** 3 to 4 nM

**Q.** And the “ComX degradation rate (highest)” value (extracellular proteases; cell-free supernatant from bioreactor cultivation 40 g/L glucose taken after approximately 16 h)?
**A.** 9.2 ± 2.1 MU/h

**Q.** And the ComX degradation rate (extracellular proteases; cell-free supernatant from bioreactor cultivation 40 g/L glucose taken after approximately 35 h)?
**A.** 8.4 ± 0.5 MU/h

**Q.** With surfactin as the substance, how does the “pH at which surfactin precipitation may occur” value [4] read?
**A.** 5.0 to 6.0 pH
